By IC50 is commonly meant the concentration that inhibits the measured activity by half. Lower therefore signals higher potency.

Experimental findings from patent US20240352022A1, “GROUP OF IMB-C5 SERIES COMPOUNDS HAVING ANTI-CORONAVIRUS ACTIVITY AND APPLICATION THEREOF” (priority 2021, published 2024) are described below.

Structures are written as SMILES.

This experiment concerns SARS-COV-2 Beta variant. The experiment in a line: microbe, parasite or virus in culture. Format: cell-based, Human coronavirus SARS-COV-2 Beta variant. Conditions: for IC50: Severe acute respiratory syndrome coronavirus 2, Vero C1008.

`COc1cccc(Cn2c(NCCO)nc3c2c(=O)n(C)c(=O)n3C)c1` [IMB-C5]: the “inhibitory activity against SARS-COV-2 (in words)” value is reported as “had an inhibitory activity against the SARS-COV-2 Beta variant” and the IC50 worked out at 34.8 µM.
As for `CCC(CC)COC(=O)[C@H](C)N[P@](=O)(OC[C@H]1O[C@@](C#N)(c2ccc3c(N)ncnn23)[C@H](O)[C@@H]1O)Oc1ccccc1` [Remdesivir, reference compound], the midpoint of inhibition, the IC50, lay at 0.73 µM.
